Results from patent US12570666B2, “Furoindazole derivatives” (Bayer Aktiengesellschaft, priority 2019, dated 2026).

Target: T1, human GPR84 receptor (Homo sapiens, UniProt Q9NQS5)
T1 construct: frozen aliquots prepared by acCELLerate; host or cells: CHO-K1
Experiment: cAMP HTRF assay for identification of cellular GPR84 antagonists
Format: cell-based
Settings: CHO-K1 cells stably expressing human GPR84; Forskolin + agonist 6-OAU (EC80); average or median values
Outline: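 IC50 came from 4-parameter fits over 20 μM–0.07 nM (11 points, duplicate), normalized between DMSO (0%) and agonist-free (100% inhibition) wells. Readout: cAMP-d2/Eu-cryptate HTRF in hGPR84 CHO-K1 cells given forskolin plus agonist, compound preincubated 30 min at room temperature.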

T1 sequence (Q9NQS5 whole entry): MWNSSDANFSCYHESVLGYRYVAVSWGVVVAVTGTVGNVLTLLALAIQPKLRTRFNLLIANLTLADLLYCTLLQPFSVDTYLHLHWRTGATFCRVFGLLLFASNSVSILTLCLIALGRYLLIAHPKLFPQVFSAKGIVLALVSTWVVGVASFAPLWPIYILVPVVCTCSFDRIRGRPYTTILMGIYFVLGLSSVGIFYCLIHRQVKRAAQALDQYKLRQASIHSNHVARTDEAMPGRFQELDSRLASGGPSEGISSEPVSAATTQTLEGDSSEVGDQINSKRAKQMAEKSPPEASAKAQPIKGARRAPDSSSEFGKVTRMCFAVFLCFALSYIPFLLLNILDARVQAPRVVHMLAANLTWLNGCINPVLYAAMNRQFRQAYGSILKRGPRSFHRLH

Row | SMILES | IC50 [nM]
1 | Cc1c(C(=O)NC[C@@H]2CCCO2)oc2c1-c1nn(CCNC(=O)OC(C)(C)C)cc1CC2 [Example 139, tert-butyl [2-(8-methyl-7-{[(2S)-tetrahydrofuran-2-ylmethyl]carbamoyl}-4,5-dihydro-2H-furo[2,3-g]indazol-2-yl)ethyl]carbamate] | 80
2 | Cc1c(C(=O)NCC2CCC3(COC3)O2)oc2c1-c1nn(Cc3ccccn3)cc1CC2 (racemic) [Example 180] | 210
3 | CC1COC(CNC(=O)c2oc3c(c2C(F)(F)F)-c2nn(C[C@H]4COCCO4)cc2[C@H](C)C3)C1 (single isomer, unassigned) [Example 313, 2,5-anhydro-1,3,4-trideoxy-1-{[(4R or 4S)-2-{[(2S)-1,4-dioxan-2-yl]methyl}-4-methyl-8-(trifluoromethyl)-4,5-dihydro-2H-furo[2,3-g]indazole-7-carbonyl]amino}-4-methylpentitol] | 21
4 | Cc1c(C(=O)NCc2cc(CN3CCOCC3)on2)oc2c1-c1nn(Cc3ccccn3)cc1CC2 [Example 11, 8-methyl-N-{[5-(morpholin-4-ylmethyl)-1,2-oxazol-3-yl]methyl}-2-(pyridin-2-ylmethyl)-4,5-dihydro-2H-furo[2,3-g]indazole-7-carboxamide] | > 20000
5 | Cc1c(C(=O)NC[C@@H]2CCCO2)oc2c1-c1nn(Cc3cncnc3)cc1CC2 [Example 85, 8-methyl-2-(pyrimidin-5-ylmethyl)-N-[(2S)-tetrahydrofuran-2-ylmethyl]-4,5-dihydro-2H-furo[2,3-g]indazole-7-carboxamide] | 260
6 | Cc1ncccc1Cn1cc2c(n1)-c1c(oc(C(=O)NC[C@@H]3COCCO3)c1C)CC2 [Example 74, N-[(2R)-1,4-dioxan-2-ylmethyl]-8-methyl-2-[(2-methylpyridin-3-yl)methyl]-4,5-dihydro-2H-furo[2,3-g]indazole-7-carboxamide] | 160
7 | Cc1c(C(=O)NCC2CN(C)CCO2)oc2c1-c1nn(Cc3ccccn3)cc1CC2 (single isomer, unassigned) [Example 38-2] | 3520
8 | Cc1ccc(Cn2cc3c(n2)-c2c(oc(C(=O)NC[C@@H]4CCCO4)c2C)CC3)cn1 [Example 75, 8-methyl-2-[(6-methylpyridin-3-yl)methyl]-N-[(2S)-tetrahydrofuran-2-ylmethyl]-4,5-dihydro-2H-furo[2,3-g]indazole-7-carboxamide] | 60
9 | O=C(NC[C@@H]1COCCO1)c1oc2c(c1C(F)(F)F)-c1nn(CC3CCOCC3)cc1CC2 [Example 242, N-{[(2R)-1,4-dioxan-2-yl]methyl}-2-[(oxan-4-yl)methyl]-8-(trifluoromethyl)-4,5-dihydro-2H-furo[2,3-g]indazole-7-carboxamide] | 29
10 | Cc1c(C(=O)NC[C@@H]2CCCO2)oc2c1-c1nn(Cc3noc(C4CC4)n3)cc1CC2 [Example 137, 2-[(5-cyclopropyl-1,2,4-oxadiazol-3-yl)methyl]-8-methyl-N-[(2S)-tetrahydrofuran-2-ylmethyl]-4,5-dihydro-2H-furo[2,3-g]indazole-7-carboxamide] | 45
11 | Cc1c(C(=O)NC[C@@H]2COCCO2)oc2c1-c1nn(C[C@@H]3CCCO3)cc1CC2 [Example 108, N[(2R)-1,4-dioxan-2-ylmethyl]-8-methyl-2-[(2S)-tetrahydrofuran-2-ylmethyl]-4,5-dihydro-2H-furo[2,3-g]indazole-7-carboxamide] | 58
12 | Cc1c(C(=O)NC[C@@H]2COCCO2)oc2c1-c1nn(Cc3ccccn3)cc1C(C)C2 (mixture of isomers) [Example 246, (4±)-N-{[(2R)-1,4-dioxan-2-yl]methyl}-4,8-dimethyl-2-[(pyridin-2-yl)methyl]-4,5-dihydro-2H-furo[2,3-g]indazole-7-carboxamide] | 75
13 | CC(=O)N1CCC(Cn2cc3c(n2)-c2c(oc(C(=O)NC[C@@H]4CCCO4)c2C(F)(F)F)CC3)CC1 [Example 305, 2-[(1-acetylpiperidin-4-yl)methyl]-N-{[(2S)-oxolan-2-yl]methyl}-8-(trifluoromethyl)-4,5-dihydro-2H-furo[2,3-g]indazole-7-carboxamide] | 16
14 | O=C(NC[C@@H]1CCCO1)c1oc2c(c1C(F)(F)F)-c1nn(Cc3ccncc3)cc1C1(CCC1)C2 [Example 280, 2′-(Pyridin-4-ylmethyl)-N-[(2S)-tetrahydrofuran-2-ylmethyl]-8′-(trifluormethyl)-2′,5′-dihydrospiro[cyclobutan-1,4′-furo[2,3-g]indazol]-7′-carboxamide] | 16
15 | C[C@@H]1Cc2oc(C(=O)NCc3cocn3)c(C(F)(F)F)c2-c2nn(C[C@H]3COCCO3)cc21 (single isomer, unassigned) [Example 261, (4R or 4S)-2-{[(2S)-1,4-dioxan-2-yl]methyl}-4-methyl-N-[(1,3-oxazol-4-yl)methyl]-8-(trifluoromethyl)-4,5-dihydro-2H-furo[2,3-g]indazole-7-carboxamide] | 63
16 | CC1(C)CCC(CNC(=O)c2oc3c(c2C(F)(F)F)-c2nn(C[C@H]4COCCO4)cc2CC3)O1 (mixture of isomers) [Example 223, N-{[(2±)-5,5-dimethyloxolan-2-yl]methyl}-2-{[(2S)-1,4-dioxan-2-yl]methyl}-8-(trifluoromethyl)-4,5-dihydro-2H-furo[2,3-g]indazole-7-carboxamide] | 23

Results, then the compound that gave them:

Row | IC50 [nM] | SMILES
17 | 180 | Cc1c(C(=O)NCc2ncco2)oc2c1-c1nn(Cc3ccccn3)cc1C1(CC1)C2 [Example 124, 8′-methyl-N-(1,3-oxazol-2-ylmethyl)-2′-(pyridin-2-ylmethyl)-2′,5′-dihydrospiro[cyclopropane-1,4′-furo[2,3-g]indazole]-7′-carboxamide]
18 | 29 | Cc1c(C(=O)NC[C@@H]2COCCO2)oc2c1-c1nn(Cc3cccnc3)cc1CC2 [Example 45, N-[(2R)-1,4-dioxan-2-ylmethyl]-8-methyl-2-(pyridin-3-ylmethyl)-4,5-dihydro-2H-furo[2,3-g]indazole-7-carboxamide]
19 | 6 | CC(=O)N1CCC(Cn2cc3c(n2)-c2c(oc(C(=O)NC[C@@H]4CCCO4)c2C(F)(F)F)C[C@H]3C)CC1 (single isomer, unassigned) [Example 292, (4R or 4S)-2-[(1-acetylpiperidin-4-yl)methyl]-4-methyl-N-{[(2S)-oxolan-2-yl]methyl}-8-(trifluoromethyl)-4,5-dihydro-2H-furo[2,3-g]indazole-7-carboxamide]
20 | 180 | Cc1c(C(=O)NC[C@@H]2COCCO2)oc2c1-c1nn(Cc3cncnc3)cc1CC2 [Example 86, N-[(2R)-1,4-dioxan-2-ylmethyl]-8-methyl-2-(pyrimidin-5-ylmethyl)-4,5-dihydro-2H-furo[2,3-g]indazole-7-carboxamide]
21 | 670 | Cc1c(C(=O)NCC2CCC(=O)O2)oc2c1-c1nn(Cc3ccccn3)cc1CC2 (single isomer, unassigned) [Example 39-1]
22 | 13 | C[C@@H]1Cc2oc(C(=O)NC[C@@H]3CCCO3)c(C(F)(F)F)c2-c2nn(CC3CCOCC3)cc21 [Example 264, (4 or 4S)-4-methyl-2-[(oxan-4-yl)methyl]-N-{[(2S)-oxolan-2-yl]methyl}-8-(trifluoromethyl)-4,5-dihydro-2H-furo[2,3-g]indazole-7-carboxamide]
23 | 10 | O=C(NC[C@@H]1COCCO1)c1oc2c(c1C(F)(F)F)-c1nn(CC3CCN(C(=O)c4ccccc4)CC3)cc1CC2 [Example 287, 2-[(1-benzoylpiperidin-4-yl)methyl]-N-{[(2R)-1,4-dioxan-2-yl]methyl}-8-(trifluoromethyl)-4,5-dihydro-2H-furo[2,3-g]indazole-7-carboxamide]
24 | 8 | CC(=O)N1CCC(Cn2cc3c(n2)-c2c(oc(C(=O)NC[C@@H]4COCCO4)c2C(F)(F)F)C[C@H]3C)CC1 (single isomer, unassigned) [Example 294, (4R or 4S)-2-[(1-acetylpiperidin-4-yl)methyl]-N-{[(2R)-1,4-dioxan-2-yl]methyl}-4-methyl-8-(trifluoromethyl)-4,5-dihydro-2H-furo[2,3-g]indazole-7-carboxamide]
25 | 109 | Cc1c(C(=O)NC[C@@H]2CCCO2)oc2c1-c1nn(CC3CCOCC3)cc1CC2 [Example 189]
26 | 17500 | Cc1noc(C)c1CNC(=O)c1oc2c(c1C)-c1nn(Cc3ccccn3)cc1CC2 [Example 27, N-[(3,5-dimethyl-1,2-oxazol-4-yl)methyl]-8-methyl-2-(pyridin-2-ylmethyl)-4,5-dihydro-2H-furo[2,3-g]indazole-7-carboxamide]
27 | 182 | Cc1c(C(=O)NCC2COCC(C)(C)O2)oc2c1-c1nn(C[C@H]3COCCO3)cc1C1(CC1)C2 (mixture of isomers) [Example 196]
28 | 110 | Cc1c(C(=O)NC[C@@H]2COCCO2)oc2c1-c1nn(CC3CC3)cc1CC2 [Example 49, 2-(cyclopropylmethyl)-N-[(2R)-1,4-dioxan-2-ylmethyl]-8-methyl-4,5-dihydro-2H-furo[2,3-g]indazole-7-carboxamide]
29 | 51 | O=C(NC[C@@H]1COCCO1)c1oc2c(c1C1CC1)-c1nn(Cc3ccccn3)cc1CC2 [Example 120, 8-cyclopropyl-N-[(2R)-1,4-dioxan-2-ylmethyl]-2-(pyridin-2-ylmethyl)-4,5-dihydro-2H-furo[2,3-g]indazole-7-carboxamide]
30 | 3 | O=C(NCc1cnc(C2CC2)cn1)c1oc2c(c1C(F)(F)F)-c1nn(C[C@H]3COCCO3)cc1CC2 [Example 321, N-[(5-cyclopropylpyrazin-2-yl)methyl]-2-{[(2S)-1,4-dioxan-2-yl]methyl}-8-(trifluoromethyl)-4,5-dihydro-2H-furo[2,3-g]indazole-7-carboxamide]
31 | > 20000 | Cc1c(C(=O)NC[C@@H]2COCCO2)oc2c1-c1nn(CCN3CCNCC3)cc1CC2 [Example 163, N-[(2R)-1,4-dioxan-2-ylmethyl]-8-methyl-2-[2-(piperazin-1-yl)ethyl]-4,5-dihydro-2H-furo[2,3-g]indazole-7-carboxamide]
